The target of the data set is ATP-dependent translocase ABCB1 (Homo sapiens, UniProt P08183). The data set can be described thus: TP_TRANSPORTER: cell accumulation of daunomycin in human K562/R7 leukemic cells. The data set is classed as functional, cell-based.

Molecules are shown by their SMILES.

Sequence of ATP-dependent translocase ABCB1 (P08183 whole entry): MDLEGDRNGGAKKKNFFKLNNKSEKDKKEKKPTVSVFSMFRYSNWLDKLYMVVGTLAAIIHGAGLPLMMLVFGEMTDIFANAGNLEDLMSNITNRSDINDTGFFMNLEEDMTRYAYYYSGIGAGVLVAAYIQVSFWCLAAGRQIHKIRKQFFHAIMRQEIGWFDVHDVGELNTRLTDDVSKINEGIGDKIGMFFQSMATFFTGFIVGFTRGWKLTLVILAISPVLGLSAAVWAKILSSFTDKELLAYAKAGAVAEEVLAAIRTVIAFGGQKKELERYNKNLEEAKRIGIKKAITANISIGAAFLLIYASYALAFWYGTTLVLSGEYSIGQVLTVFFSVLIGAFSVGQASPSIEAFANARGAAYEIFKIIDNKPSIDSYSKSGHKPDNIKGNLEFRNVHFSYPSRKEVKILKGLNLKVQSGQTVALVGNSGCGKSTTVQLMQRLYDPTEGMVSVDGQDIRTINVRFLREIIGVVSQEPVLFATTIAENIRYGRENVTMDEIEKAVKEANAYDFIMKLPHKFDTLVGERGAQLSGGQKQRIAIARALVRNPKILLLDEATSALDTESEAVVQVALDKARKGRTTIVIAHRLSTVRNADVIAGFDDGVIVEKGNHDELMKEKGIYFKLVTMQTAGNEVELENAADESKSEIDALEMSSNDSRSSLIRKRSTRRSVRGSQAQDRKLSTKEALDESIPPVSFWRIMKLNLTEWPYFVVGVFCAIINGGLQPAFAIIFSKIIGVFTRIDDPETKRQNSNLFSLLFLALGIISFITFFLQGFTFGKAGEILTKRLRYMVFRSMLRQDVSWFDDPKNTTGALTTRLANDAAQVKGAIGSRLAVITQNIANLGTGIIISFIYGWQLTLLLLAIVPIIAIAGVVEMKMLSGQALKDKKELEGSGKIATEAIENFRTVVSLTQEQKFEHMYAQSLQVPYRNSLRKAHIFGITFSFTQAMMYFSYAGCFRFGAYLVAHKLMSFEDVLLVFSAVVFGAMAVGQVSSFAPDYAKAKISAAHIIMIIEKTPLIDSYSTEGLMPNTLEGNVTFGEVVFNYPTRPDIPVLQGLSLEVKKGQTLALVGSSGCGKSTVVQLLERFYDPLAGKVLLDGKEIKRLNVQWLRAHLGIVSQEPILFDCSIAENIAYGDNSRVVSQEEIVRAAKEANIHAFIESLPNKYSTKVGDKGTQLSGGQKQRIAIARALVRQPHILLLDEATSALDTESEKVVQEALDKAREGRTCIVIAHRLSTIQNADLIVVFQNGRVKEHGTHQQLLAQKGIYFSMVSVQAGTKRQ

For the compound `C=C1[C@@H](OC(C)=O)[C@@H](OC(C)=O)[C@@H](OC(=O)c2cccnc2)C(C)(C)/C=C/[C@H](C)[C@H](OC(C)=O)[C@@]2(O)C[C@@](C)(OC(C)=O)[C@H](OC(=O)c3ccccc3)[C@@H]2[C@H]1OC(C)=O` [PEPLUANIN], the Activity entry is “inhibitor [+]”.

(Values after ChEMBL document CHEMBL1148472, “Jatrophane diterpenes as modulators of multidrug resistance. Advances of structure-activity relationships and discovery of the potent lead pepluanin A” (J Med Chem, 2004).)
